The values that follow come from PubChem BioAssay (NCI).

Structures are written as SMILES.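 All cell lines were grown in 96-well plates and treated with compound for 48 hours. TGI denotes the concentration required for complete inhibition of growth.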 Where a SMILES comes first, the peptide text is derived from it. The star is where a group is joined. Fmoc = O=C(OCC1c2ccccc2-c2ccccc21)*; Boc = CC(C)(C)OC(=O)*

Common to all, as to assay: DTP human tumour cell line panel, 48 h
The subject of assay [1] is MDA-MB-435.
In assay [2] the test system is CAKI-1 renal.
In assay [3] the test system is NCI-H522 lung.
The test system of assay [4] is CCRF-CEM leukemia.
In assay [5] the test system is TK-10 renal.
For assay [6], the system named is COLO 205 colon.
In assay [7] the test system is SR leukemia.
For assay [8], the system named is ACHN renal.
Assay [9] concerns MDA-N.
Assay [10] concerns RPMI-8226 leukemia.

As a reminder, the TGI is the concentration giving total growth inhibition. A high value points to lower sensitivity of the cells.

In the case of `COc1ccc(C(SCCO)(c2ccccc2)c2ccccc2)cc1`, the concentration for total growth inhibition (TGI) in [1] was found to be 27.1 µM; in [2] it was 32.2 µM; in [3], 34.4 µM; in assay [4], 64.8 µM; in assay [5] it was 35 µM; in assay [6], 27.5 µM. Besides, the total growth inhibition concentration (TGI) is > 100 µM in [7], 27.3 µM in assay [8] and 26 µM in [9].

Consider `CCOC(=O)Cc1nc2sc(S(N)(=O)=O)nn2c1Br`, for which the TGI in assay [1] is > 100 µM; in [2], 37.2 µM; in assay [3], 39.5 µM; in assay [10] it was 73.5 µM; in assay [5], > 100 µM; in [6] it was > 100 µM. Also, the total growth inhibition concentration (TGI) in assay [7] was > 100 µM; in assay [8] it was 93.3 µM; in assay [9], > 100 µM.

Turning to `CC(C)(C)OC(=O)NCCCCC(NC(=O)OCC1c2ccccc2-c2ccccc21)C(=O)N1CCCC1C(=O)NCC(N)=O` (stereo not drawn) (Fmoc-Lys(Boc)-Pro-Gly-NH2; configuration not given here), the TGI in assay [1] is 84.8 µM; in [2] it was 30.1 µM; in assay [10] it was > 100 µM; in [4], > 100 µM; in [5] it was > 100 µM; in assay [6] it was 99.2 µM. Further, the concentration for total growth inhibition (TGI) in [7] was found to be 49.5 µM; in assay [8] it was 34.6 µM; in assay [9], 49.9 µM.

For `O=C(/C=C/c1ccc(/C=C/C(=O)c2ccc(O)cc2)cc1)c1ccc(O)cc1`, the TGI in assay [1], in [2], in assay [10], in assay [4], in [5] and in assay [6] was > 100 µM throughout. For the same molecule, the TGI in assay [7], in assay [8] and in [9] was > 100 µM in each case.

With `O=C(O)c1cnc2[nH]ccn2c1=O`, the TGI in assay [1], in assay [10], in [4], in assay [5], in assay [6] and in assay [7] was > 100 µM each time. Besides, the TGI in [8] and in [9] was > 100 µM each time.

Turning to `Fc1ccc2nc3n(c2c1)C(c1c(Cl)cccc1Cl)SC3` (configuration not stated), the TGI in [1], in [2], in assay [3], in [10], in assay [5] and in [6] was > 100 µM throughout. In addition, the TGI in assay [7], in assay [8] and in [9] was > 100 µM each time.

Take `CC(C)[Si](OC1=CCC[C@H]2NC(=O)[C@@H](Cc3ccccc3)[C@@]12C)(C(C)C)C(C)C`: the concentration for total growth inhibition (TGI) in [1] was 13.4 µM; in [2] it was 14.6 µM; in assay [3], 17.4 µM; in assay [4], 10.2 µM; in assay [5], 21.7 µM; in assay [6], 6.35 µM. For the same molecule, the values for the TGI in [7], in assay [8] and in assay [9] were 7.19 µM, 5.25 µM and 14.2 µM, respectively.

For `CC(=O)OCC1OC(SC2OC(COC(C)=O)C(OC(C)=O)C(OC(C)=O)C2OC(C)=O)C(OC(C)=O)C(OC(C)=O)C1OC(C)=O` (configuration not stated), the TGI in [1], in assay [2], in assay [10], in assay [4], in [5] and in [6] was > 100 µM throughout. The total growth inhibition concentration (TGI) in assay [7], in [8] and in assay [9] was > 100 µM each time.

Take `O=c1oc2cc(O)ccc2c(O)c1C(c1cccnc1)c1c(O)c2ccc(O)cc2oc1=O`: the TGI in assay [1], in [2], in [3], in assay [10], in assay [5] and in [6] was > 100 µM in each case. Also, the TGI in assay [7], in [8] and in [9] was > 100 µM throughout.

For `N#C/C(=C\NC(=S)c1ccncc1)c1nc2ccccc2s1`, the TGI in [1], in [2], in [3], in assay [10], in assay [5] and in assay [6] was > 100 µM in each case. For the same molecule, the concentration for total growth inhibition (TGI) in assay [7], in assay [8] and in assay [9] was > 100 µM in each case.

On to `O=C(/C=C/c1ccc(O)c(O)c1)c1cc(O)cc(O)c1`, for which the total growth inhibition concentration (TGI) was 20.3 µM in assay [1]; > 100 µM in assay [2]; 3.73 µM in assay [3]; > 100 µM in assay [10]; 39.7 µM in [5]; 31.1 µM in assay [6]. Further, the TGI in [7] is > 100 µM; in assay [8], 28.9 µM; in assay [9], 20.5 µM.

`CCCCCCCCCCCCOP(=O)(O)OCC(N)C(=O)O` (configuration not stated): the TGI in assay [1] is 36.8 µM; in assay [2], 95.8 µM; in assay [3], > 100 µM; in assay [10] it was 68.5 µM; in [5], 53 µM; in [6], > 100 µM. Further, the concentration for total growth inhibition (TGI) in assay [7] was 90 µM; in assay [8], > 100 µM; in assay [9] it was 62.6 µM.
